Source: PubChem BioAssay (NCI)
Values joined by “and” are separate entries in the source; they are usually repeats but may differ in a detail not shown here. Equal values may be shown once.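 96-well plates; 48 h exposure; 5 concentrations. Endpoints by linear interpolation between flanking doses. Not reached: highest tested concentration assigned. GI50: concentration for 50% inhibition of growth. At the TGI there is no net growth.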

Legend:
Experiment in all cases: NCI tumour cell line growth inhibition, 48 h
[1] = system: HCT-116 colon
[2] = system: NCI-H226 lung
[3] = system: BT-549 breast
[4] = system: MDA-MB-435
[5] = system: CCRF-CEM leukemia
[6] = system: MOLT-4 leukemia
[7] = system: PC-3 prostate
[8] = system: ACHN renal
[9] = system: LOX IMVI melanoma
[10] = system: OVCAR-5 ovarian

Compound	GI50 [1]	TGI [1]	GI50 [2]	TGI [2]	GI50 [3]	TGI [3]	GI50 [4]	TGI [4]	GI50 [5]	TGI [5]	GI50 [6]	TGI [6]	GI50 [7]	TGI [7]	GI50 [8]	TGI [8]	GI50 [9]	TGI [9]	GI50 [10]	TGI [10]
Cc1cc(-c2nc3n(c2/C=N/N=C(N)N)CCS3)c(C)s1	15.4 µM	28.7 µM	18.7 µM	37.9 µM	23.1 µM	42.5 µM	18.5 µM	32.5 µM	12.7 µM	37.1 µM	30.1 µM	> 100 µM	13.1 µM	27.7 µM	20 µM	39.5 µM	15 µM	29.1 µM	14.9 µM	29.8 µM
CSc1ccc(NC(=O)Nc2cc(C)ccn2)cc1		> 100 µM		> 100 µM		> 100 µM		> 100 µM		> 100 µM		> 100 µM		> 100 µM		> 100 µM		> 100 µM		> 100 µM
COc1cc(C2c3cc4c(cc3[C@@H](Nc3ccc([N+](=O)[O-])cc3)C3COC(=O)[C@H]23)OCO4)cc(OC)c1O (stereo partly drawn)		14.2 µM		3.1 µM		6.39 µM		> 100 µM	0.226 µM	0.967 µM and 8.1 µM	0.0342 µM	0.544 µM and 0.442 µM		> 100 µM		2.82 µM	0.367 µM	6.67 µM	0.722 µM	13.6 µM
CC1=CC(C)(C)Nc2ccc(Cc3ccc4c(c3)C(C)=CC(C)(C)N4)cc21	8.69 µM	43.9 µM	20.2 µM	> 100 µM	28.4 µM	> 100 µM	16.5 µM	> 100 µM	4.67 µM	59.6 µM	4.86 µM	54 µM	4.26 µM	> 100 µM	11.1 µM	> 100 µM	15.1 µM	82.2 µM	52.3 µM	> 100 µM
COc1c(B(O)O)cccc1-c1nc2ccc3[nH]ncc3c2c2c1CCCC2	0.473 µM	> 96.7 µM	1.51 µM	12.2 µM	0.122 µM	2.56 µM	3.45 µM	12.1 µM	0.544 µM	> 49.7 µM	1.57 µM	> 34.6 µM	2.41 µM	40.6 µM	1.77 µM	16.8 µM	1.38 µM	6.28 µM	2.45 µM	25.2 µM
CNCC(=O)NC(CO)C(=O)NC(CO)C(=O)NC1C(C(N)=O)OC(n2ccc(N)nc2=O)C(O)C1O (stereo not drawn)	4.68 mg/L	40.3 mg/L	1.65 mg/L	13.9 mg/L	7.25 mg/L	25.3 mg/L	41.9 mg/L	> 50 mg/L	> 50 mg/L	> 50 mg/L	> 50 mg/L	> 50 mg/L	10.2 mg/L	47.5 mg/L	5.15 mg/L	> 50 mg/L	2.43 mg/L	15.9 mg/L	9.43 mg/L	> 50 mg/L
CN(C)c1cc2c(Nc3ccc4c(cnn4Cc4ccccc4)c3)ncnc2cn1	9.23 µM	> 25 µM	15.9 µM	> 25 µM	10.7 µM	> 25 µM	10.5 µM	> 25 µM	10.3 µM	> 25 µM	9.47 µM	> 25 µM	10 µM	> 25 µM	2.1 µM	> 25 µM	8.32 µM	> 25 µM	9.2 µM	> 25 µM
C=C1C(=O)O[C@@H]2CC(CO)=C([C@@H](C)CCCO)[C@@H](OC(=O)/C(C)=C\C)[C@H]12		26.5 µM		> 62.8 µM		> 90.6 µM		> 52.4 µM		10 µM		33.4 µM		45.7 µM		39.8 µM		24.3 µM		> 56.9 µM
OC(CN1CCCC2CCCCC21)c1cc2ccccc2c2ccccc12 (stereo not drawn)	1.29 µM	2.56 µM	2.14 µM	6.32 µM	1.54 µM	4.06 µM	2.02 µM	5.06 µM	1.87 µM	5.2 µM	1.81 µM	4.79 µM	2.27 µM	10.1 µM	3 µM	10.1 µM	1.53 µM	2.93 µM	1.95 µM	5.64 µM
Cc1c(Cl)cccc1NC(=O)c1sc2nc3c(cc2c1N)C(=O)CCC3	0.0644 µM	> 100 µM	0.102 µM	> 37.1 µM	0.169 µM	> 100 µM	0.0203 µM	0.0488 µM	0.108 µM	> 100 µM	0.466 µM	> 100 µM	0.0517 µM	> 52.2 µM	0.0825 µM	> 61.5 µM	0.0782 µM	> 100 µM	0.283 µM	> 100 µM
O=C(CSC(c1ccccc1)c1ccccc1)N/N=C/c1ccccc1Cl	14 µM	> 54.6 µM	> 33 µM	> 68.2 µM	2.75 µM	17 µM	49.6 µM	> 100 µM	17.4 µM	43.2 µM	6.33 µM	40.2 µM	14.1 µM	70.1 µM	2.18 µM	25.2 µM	31.1 µM	> 100 µM	10.7 µM	> 73.2 µM
CC(=O)O[C@@H]1C2=C(C)C3(CC3)[C@@](C)(O)C(=O)C2=C[C@@]1(C)CO	0.424 µM	> 100 µM	2.12 µM	5.22 µM	0.509 µM	2.79 µM	0.48 µM	1.72 µM	0.475 µM	> 22.5 µM	1.53 µM	> 100 µM	1.02 µM	12.3 µM	0.484 µM	2.33 µM	1.04 µM	4.44 µM	0.427 µM	
C[C@H]1COCCN1c1nc(-c2cnc(N)cc2C(F)F)nc(N2CCOCC2)n1	0.233 µM	> 100 µM	0.127 µM	> 100 µM	0.098 µM	0.818 µM	0.182 µM	5.27 µM	0.285 µM	> 50.3 µM	0.225 µM	33 µM	0.0985 µM	> 100 µM	0.207 µM	> 100 µM	0.152 µM	4.44 µM	0.188 µM	> 100 µM
